Test results reported in patent US11136300B2, “Crystalline forms of 3-substituted 1,2,4-oxadiazole” (Aurigene Discovery Technologies Limited, priority 2017, dated 2021).
In brackets after ≈: the same amount, converted by molar mass.

Tests used:
Type in all cases: physicochemical
[1] = Solid stability of crystalline Form 2 on storage; conditions: 7-8 days
Method: Samples of formula (I) crystalline Form 2 were stored as solids at 25° C./60% Relative Humidity (RH), 30° C./˜56%, and 40° C./75% RH for 7-8 days. The samples were prepared in duplicate with an offset of 2 weeks. Each replicate was stored in a different container.

[2] = Equilibrium solubility of formula (I) Form 2 in water; conditions: for Final Form: solids checked by XRPD after 6 hrs; for solubility at 6 h: thermodynamic from solid, equilibrated 6 hrs, supernatant by HPLC
Method: Equilibrium solubility of formula (I) Form 2 was measured in the water at 20° C. and 30° C. All samples were equilibrated at temperature for 6 hrs, and the solubility of supernatant was measured by HPLC, while the solids were checked by XRPD. (See Table 9.)

[3] = Storage of Form 1 at ambient conditions
Method: Formula (I) Form 1 exists at ambient conditions upon short term storage (i.e., less than 8 d). A mixture of formula (I) Forms 1 and 2 (16 mg) was weighed into a glass vial, and tetrahydrofuran (THF, 0.5 mL) was added. The resulting slurry was stirred at room temperature for about 4 d. The wet solids were analyzed by XRPD in transmission mode and confirmed to be crystalline formula (I) Form 1, as shown by XRPD analysis (FIG. 1).

| SMILES | solid form and particle morphology after storage ([1]; 25° C./60% RH) | solid form and particle morphology after storage ([1]; 30° C./~56% RH) | solid form and particle morphology after storage ([1]; 40° C./75% RH) | form change during the solubility testing ([2]; 20° C. and 30° C., XRPD (FIG. 6)) | Final Form ([2]; 20° C.) | Final Form ([2]; 30° C.) | solubility at 6 h ([2]; 20° C.) | solubility at 6 h ([2]; 30° C.) | time for which the form exists on short term storage [3] |
| --- | --- | --- | --- | --- | --- | --- | --- | --- | --- |
| CC(O)[C@H](NC(=O)N[C@@H](CC(N)=O)c1nc([C@@H](N)CO)no1)C(=O)O (stereo partly drawn) [Form 2] | remained unchanged | remained unchanged | remained unchanged | No form change was observed | Form 2 | Form 2 | 148 mg/mL (≈ 410 mM) | 166 mg/mL (≈ 459 mM) |  |
| CC(O)[C@H](NC(=O)N[C@@H](CC(N)=O)c1nc([C@@H](N)CO)no1)C(=O)O (stereo partly drawn) [Form 1] |  |  |  |  |  |  |  |  | less than 8 d |
